One assay concerns the target T1, eqBuChE (Equus caballus, UniProt P81908).
T1 construct: equine serum butyrylcholinesterase (eqBuChE); purchased Sigma-Aldrich (lyophilized powder, 10.9 U/mg); host or cells: equine serum
The experiment in a line: Ellman cholinesterase inhibitory assay, eqBuChE (screening and IC50). In kind it is biochemical. The following applies: for inhibition at 100 µM: compound 100 µM, substrate 3 mM. The procedure:
(§1) Firstly, the inhibitory activity of the quercetin-1,2,3-triazole hybrids I–IV was screened in vitro on eeAChE and eqBuChE at a concentration of 100 μM (these enzymes are considered as models of the human isoform). The ChE inhibitory activity of all compounds was evaluated using the method of Ellman.
(§2) The inhibitory activities of title compounds against commercially available cholinesterases (eeAChE) (Electrophorus electricus, Type V-S), eqBuChE (equine serum), were conducted using minor modifications of Ellman’s assay. Nine different concentrations ([…], 37.5, 75, 150, and 300 μM in H2O:DMSO (50:50)) of each test compound were used to determine the enzyme-inhibition activity. Briefly, 55 μL of 50 mM Tris-HCl buffer at pH 8, 25 μL of eqBuChE (0.03 U/mL), 20 μL of the test or standard compounds, and 125 μL of DTNB (0.8 mM) were incubated in 96-well plates at 37 °C for 15 min. Further, 25 μL of the substrate, BTCI (0.8 mM), was added, and the solution was incubated for additional 15 min. Finally, the absorbance was measured at 412 nm wavelength using a Microplate Spectrophotometry (TriStar® S LB 942 model instrument). The IC50 values were determined from the absorbance obtained for various concentrations of the test and the standard compounds. All determinations were performed in triplicate.
(§3) To determine the % of inhibition ([I] = 100 μM), the substrate concentration (acetylthiocholine iodide for AChE; S-butyrylthiocholine iodide for BuChE) was fixed at 3 mM.

In another assay the target is T2, eeAChE (Electrophorus electricus, UniProt O42275).
T2 construct: catalogue number not given
T2 sequence (O42275 24-633): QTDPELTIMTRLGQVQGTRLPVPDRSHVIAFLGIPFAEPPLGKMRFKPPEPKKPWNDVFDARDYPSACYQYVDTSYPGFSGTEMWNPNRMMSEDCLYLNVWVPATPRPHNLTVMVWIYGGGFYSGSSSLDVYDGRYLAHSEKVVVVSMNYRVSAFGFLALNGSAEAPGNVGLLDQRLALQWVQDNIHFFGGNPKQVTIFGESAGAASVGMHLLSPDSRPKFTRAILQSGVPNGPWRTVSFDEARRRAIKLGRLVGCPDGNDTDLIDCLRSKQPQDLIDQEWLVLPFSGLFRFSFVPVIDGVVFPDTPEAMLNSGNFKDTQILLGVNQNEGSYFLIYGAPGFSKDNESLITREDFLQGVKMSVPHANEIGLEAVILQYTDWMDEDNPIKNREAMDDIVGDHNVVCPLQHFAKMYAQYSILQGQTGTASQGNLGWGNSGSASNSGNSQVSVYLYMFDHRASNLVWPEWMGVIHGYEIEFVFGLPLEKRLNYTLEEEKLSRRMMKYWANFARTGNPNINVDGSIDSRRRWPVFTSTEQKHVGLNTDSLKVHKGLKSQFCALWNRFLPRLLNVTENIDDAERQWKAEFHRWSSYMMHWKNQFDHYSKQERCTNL
Briefly: Ellman cholinesterase inhibitory assay, eeAChE screening. As to conditions: compound 100 µM; substrate 3 mM. In kind it is biochemical. On the procedure: as §1, §2, §3
Background: Ellman's reagent forms a yellow product with free thiols.

Assay [1] in a line: DPPH radical scavenging antioxidant assay. As to conditions: 100 μg/mL. The procedure:
To assess the antioxidant activity of hybrids IVa–e, IIf and quercetin, the 2,2-diphenyl-1-[…] (DPPH) radical scavenging colorimetric method was used, which is one of the most widely used methods for determining antioxidant activity. In this method, antioxidants react with DPPH (which has a strong violet color) and convert it into yellow diphenylpicrylhydrazine. Compounds were assayed in the range of concentrations from 3 to 200 μg/mL. Ascorbic acid was used as positive control. […] Another piece of evidence is the similarity between the % inhibition values of hybrids IVa,b and IVd,e and quercetin.
The colorimetric DPPH assay was carried out as described in [33]. […] In brief, 30 μL of a test compound (in MeOH) was mixed with 200 μL of DPPH (100 μM in methanol) in a 96-well plate in triplicate. After 30 min incubation at room temperature in the absence of light, the absorbances were measured at 517 nm using Microplate Spectrophotometry (TriStar® S LB 942 model instrument). The free radical scavenging activity results are expressed as a percentage of DPPH inhibition according to the following formula:
% of Inhibition = 100[(A(Blank) − A(sample))/A(blank)], where A(blank) consists of methanol (30 μL) mixed with DPPH (200 μL) absorbance, and A(sample) is the absorbance value for the added sample concentration compound mixed with DPPH. Ascorbic acid was used as a positive control.

Another assay concerns MCF-7 cells. Briefly: Protective assay against hydrogen peroxide-induced oxidative stress in MCF-7 cells. In kind it is cell-based, Human. As to conditions: 100 µM H2O2, 2 h. The procedure: Given the importance of oxidative stress-induced apoptosis of neuronal cells in AD, we present here a study to investigate the effect of quercetin-1,2,3-triazole hybrids on H2O2-induced oxidative damage in cultured MCF-7 cells, used as a human cell model. Viability was assessed with the WST-1 test in the absence and in the presence of an oxidative stressor (10^−4 M H2O2).
MCF-7 (Human breast adenocarcinoma (MERCK—# 86012803-DNA-5UG), Database Name: ECACC collection, Accession Numbers: 86012803) was the cell line elected as a cell injury model for the study of the potential protective effect of the butyrylcholinesterase inhibitors (hybrids) against hydrogen peroxide-induced oxidative stress. Cytotoxicity of the hybrids was also evaluated.
The culture medium was subsequently replaced with different final concentrations (6.25–50 μM) of the compounds to be tested. Negative controls were prepared, incubating cells in culture media.
Parallel experiments were performed for cytotoxicity assessment and for protective effect against hydrogen peroxide-induced oxidative stress evaluation. First, 10 μL of PBS was added in the designated wells; second, 10 μL of H2O2 (reaching a final concentration of 100 µM) was added. Following a 2 h incubation period at 37 °C in 5% CO2 atmosphere incubator, cellular viability was measured by adding WST-1 dehydrogenases substrate and incubating for 1 h, and the amount of formazan dye produced was evaluated by measuring the absorbance at 440 nm.

Where [2] appears, read: concentration range 1.2-300 µM, BTCI 0.8 mM, read-out: IC50 values for eqBuChE.

Like-named read-outs stand apart in the source and are kept apart here.

T1 sequence (P81908 whole entry): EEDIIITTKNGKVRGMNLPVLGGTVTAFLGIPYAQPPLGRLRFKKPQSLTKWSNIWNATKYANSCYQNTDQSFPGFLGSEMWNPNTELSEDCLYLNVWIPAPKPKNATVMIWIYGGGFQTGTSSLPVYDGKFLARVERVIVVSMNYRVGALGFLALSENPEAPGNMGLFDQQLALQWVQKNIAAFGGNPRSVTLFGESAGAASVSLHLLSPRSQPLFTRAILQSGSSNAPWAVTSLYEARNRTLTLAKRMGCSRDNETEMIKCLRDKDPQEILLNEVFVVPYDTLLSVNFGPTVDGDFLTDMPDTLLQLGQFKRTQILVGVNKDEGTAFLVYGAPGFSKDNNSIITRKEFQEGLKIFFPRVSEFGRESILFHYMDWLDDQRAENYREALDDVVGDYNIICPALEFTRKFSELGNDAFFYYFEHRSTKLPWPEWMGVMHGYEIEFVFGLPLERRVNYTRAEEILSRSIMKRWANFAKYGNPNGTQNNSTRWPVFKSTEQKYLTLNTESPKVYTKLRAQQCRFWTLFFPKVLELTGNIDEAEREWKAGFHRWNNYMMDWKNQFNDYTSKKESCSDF

For the molecule `O=c1c(OCCCCn2cc(-c3ccccc3)nn2)c(-c2ccc(OCc3ccccc3)c(OCc3ccccc3)c2)oc2cc(OCc3ccccc3)cc(OCc3ccccc3)c12` [IIIa, 5,7-Bis(benzyloxy)-2-(3,4-bis(benzyloxy)phenyl)-3-(4-(4-phenyl-1H-1,2,3-triazol-1-yl)butoxy)-4H-chromen-4-one], the values for the inhibition at 100 µM at eqBuChE and on eeAChE were 46.9% and 40.6%, respectively.

Regarding `O=c1c(OCCCCn2cc(C3(O)CCCC3)nn2)c(-c2ccc(OCc3ccccc3)c(OCc3ccccc3)c2)oc2cc(OCc3ccccc3)cc(OCc3ccccc3)c12` [IIIc, 5,7-Bis(benzyloxy)-2-(3,4-bis(benzyloxy)phenyl)-3-(4-(4-(1-hydroxycyclopentyl)-1H-1,2,3-triazol-1-yl)butoxy)-4H-chromen-4-one], the inhibition (usually how much of the control response was suppressed) at 100 µM on eqBuChE worked out at 26.9%; at eeAChE, 17.2%.

Consider `CC(C)(O)c1cn(CCCCOc2c(-c3ccc(OCc4ccccc4)c(OCc4ccccc4)c3)oc3cc(OCc4ccccc4)cc(OCc4ccccc4)c3c2=O)nn1` [IIId, 5,7-Bis(benzyloxy)-2-(3,4-bis(benzyloxy)phenyl)-3-(4-(4-(2-hydroxypropan-2-yl)-1H-1,2,3-triazol-1-yl)butoxy)-4H-chromen-4-one], for which the values for the inhibition at 100 µM on eqBuChE and against eeAChE were 27.3% and 15.1%, respectively.

Regarding `O=C1C(=O)N(Cc2cn(CCCCOc3c(-c4ccc(OCc5ccccc5)c(OCc5ccccc5)c4)oc4cc(OCc5ccccc5)cc(OCc5ccccc5)c4c3=O)nn2)c2ccccc21` [IIIf, 1-((1-(4-((5,7-Bis(benzyloxy)-2-(3,4-bis(benzyloxy)phenyl)-4-oxo-4H-chromen-3-yl)oxy)butyl)-1H-1,2,3-triazol-4-yl)methyl)indoline-2,3-dione], the inhibition at 100 µM at eqBuChE worked out at 34.5%; at eeAChE, 0%.

Take `COc1cc(OC)c2c(=O)c(OCCCCn3cc(-c4ccccc4)nn3)c(-c3ccc(OC)c(OC)c3)oc2c1` [IIa, 2-(3,4-Dimethoxyphenyl)-5,7-dimethoxy-3-(4-(4-phenyl-1H-1,2,3-triazol-1-yl)butoxy)-4H-chromen-4-one]: the inhibition at 100 µM against eqBuChE came to 55.3%; against eeAChE, 7.75%. For the same molecule, the IC50 (commonly the concentration that gives 50% inhibition) on eqBuChE (setting [2]) was greater than 300 µM.

For `COc1cc(OC)c2c(=O)c(OCCCCn3cc(C4CC4)nn3)c(-c3ccc(OC)c(OC)c3)oc2c1` [IIb, 2-(3,4-Dimethoxyphenyl)-3-(4-(4-cyclopropyl-1H-1,2,3-triazol-1-yl)butoxy)-5,7-dimethoxy-4H-chromen-4-one], the inhibition at 100 µM stood at 54.4% on eqBuChE and 0% on eeAChE. Further, the half-maximal inhibitory concentration (IC50) on eqBuChE (setting [2]) was greater than 300 µM.

In the case of `COc1cc(OC)c2c(=O)c(OCCCCn3cc(C4(O)CCCC4)nn3)c(-c3ccc(OC)c(OC)c3)oc2c1` [IIc, 2-(3,4-Dimethoxyphenyl)-3-(4-(4-(1-hydroxycyclopentyl)-1H-1,2,3-triazol-1-yl)butoxy)-5,7-dimethoxy-4H-chromen-4-one], the results for the inhibition at 100 µM against eqBuChE and against eeAChE were 69.6% and 0%, respectively. Also, the half-maximal inhibitory concentration (IC50) at eqBuChE (setting [2]) is greater than 300 µM.

Regarding `COc1cc(OC)c2c(=O)c(OCCCCn3cc(C(C)(C)O)nn3)c(-c3ccc(OC)c(OC)c3)oc2c1` [IId, 2-(3,4-Dimethoxyphenyl)-3-(4-(4-(2-hydroxypropan-2-yl)-1H-1,2,3-triazol-1-yl)butoxy)-5,7-dimethoxy-4H-chromen-4-one], the results for the inhibition at 100 µM at eqBuChE and against eeAChE were 60.6% and 0%, respectively. For the same molecule, the IC50 on eqBuChE (setting [2]) was greater than 300 µM.

For `COc1cc(OC)c2c(=O)c(OCCCCn3cc(COc4cc(C)ccc4C(C)C)nn3)c(-c3ccc(OC)c(OC)c3)oc2c1` [IIe, 2-(3,4-Dimethoxyphenyl)-3-(4-(4-((2-isopropyl-5-methylphenoxy)methyl)-1H-1,2,3-triazol-1-yl)butoxy)-5,7-dimethoxy-4H-chromen-4-one], the inhibition at 100 µM against eqBuChE was found to be 81.7%; on eeAChE it was 4.13%. On eqBuChE (setting [2]), the IC50 came to 26.6 µM.

As to `COc1cc(OC)c2c(=O)c(OCCCCn3cc(CO)nn3)c(-c3ccc(OC)c(OC)c3)oc2c1` [IIg, 2-(3,4-Dimethoxyphenyl)-3-(4-(4-(hydroxymethyl)-1H-1,2,3-triazol-1-yl)butoxy)-5,7-dimethoxy-4H-chromen-4-one], the inhibition at 100 µM at eqBuChE came to 53.8%; on eeAChE, 0%. Further, the IC50 on eqBuChE (setting [2]) was greater than 300 µM.

Take `CCCc1cn(CCCCOc2c(-c3ccc(OC)c(OC)c3)oc3cc(OC)cc(OC)c3c2=O)nn1` [IIh, 2-(3,4-Dimethoxyphenyl)-5,7-dimethoxy-3-(4-(4-propyl-1H-1,2,3-triazol-1-yl)butoxy)-4H-chromen-4-one]: the inhibition at 100 µM worked out at 7.97% against eqBuChE and 38.6% against eeAChE. On eqBuChE (setting [2]), the IC50 is greater than 300 µM.

For the molecule `COc1cc(OC)c2c(=O)c(OCCCCn3cc(C(C)(C)N)nn3)c(-c3ccc(OC)c(OC)c3)oc2c1` [IIi, 3-(4-(4-(2-Aminopropan-2-yl)-1H-1,2,3-triazol-1-yl)butoxy)-2-(3,4-dimethoxyphenyl)-5,7-dimethoxy-4H-chromen-4-one], the inhibition at 100 µM turned out to be 74.4% against eqBuChE and 0% against eeAChE. Further, the IC50 at eqBuChE (setting [2]) was determined as 70.2 µM.

Regarding `O=c1c(OCCCCn2cc(C3(O)CCCC3)nn2)c(-c2ccc(O)c(O)c2)oc2cc(O)cc(O)c12` [IVc, 2-(3,4-Dihydroxyphenyl)-5,7-dihydroxy-3-(4-(4-(1-hydroxycyclopentyl)-1H-1,2,3-triazol-1-yl)butoxy)-4H-chromen-4-one], the inhibition at 100 µM on eqBuChE was determined as 69.9%; against eeAChE, 21.6%. Also, at eqBuChE (setting [2]), the IC50 stood at 65.7 µM.

On to `Cc1ccc(C(C)C)c(OCc2cn(CCCCOc3c(-c4ccc(O)c(O)c4)oc4cc(O)cc(O)c4c3=O)nn2)c1` [IVe, 2-(3,4-Dihydroxyphenyl)-5,7-dihydroxy-3-(4-(4-((2-isopropyl-5-methylphenoxy)methyl)-1H-1,2,3-triazol-1-yl)butoxy)-4H-chromen-4-one], for which the inhibition at 100 µM against eqBuChE was 63.4%; at eeAChE, 29.1%. Further, the IC50 at eqBuChE (setting [2]) was greater than 150 µM. The DPPH antioxidant activity result in assay [1] is recorded as “potent antioxidant activity”.

For the molecule `COc1cc(OC)c2c(=O)c(OCc3cn(Cc4ccccc4)nn3)c(-c3ccc(OC)c(OC)c3)oc2c1` [Ia, 3-((1-Benzyl-1H-1,2,3-triazol-4-yl)methoxy)-2-(3,4-dimethoxyphenyl)-5,7-dimethoxy-4H-chromen-4-one], the inhibition at 100 µM against eqBuChE came out at 54.4%; at eeAChE, 0%.

Consider `COc1cc(OC)c2c(=O)c(OCc3cn(Cc4cccc(Cl)c4)nn3)c(-c3ccc(OC)c(OC)c3)oc2c1` [Ib, 3-((1-(3-Chlorobenzyl)-1H-1,2,3-triazol-4-yl)methoxy)-2-(3,4-dimethoxyphenyl)-5,7-dimethoxy-4H-chromen-4-one], for which the inhibition at 100 µM against eqBuChE was found to be 63.3%; against eeAChE, 0%.

As for `O=c1c(O)c(-c2ccc(O)c(O)c2)oc2cc(O)cc(O)c12` [Quercetin], the “cellular antioxidant protection against H2O2” value in the assay with MCF-7 cells was “low capacity in cellular protection”. At eqBuChE, this molecule returned an IC50 of 18.2 µM and an inhibition at 100 µM of 100%. The molecule further showed an inhibition at 100 µM against eeAChE of 8.18%.
